Measured values: patent US20260242395A1, “AMINOHETEROARYL KINASE INHIBITORS” (ALLORION THERAPEUTICS INC, priority 2022, published 2026)

How the values were obtained:
Format in all cases: biochemical
CDK4/CyclinD1 = molecular target: T1, CDK4/CyclinD1 (Homo sapiens, UniProt P11802); test: CDK4/CyclinD1 kinase inhibitory activity (Caliper mobility shift); settings: enzyme 20 nM, ATP 672 uM, 28° C. 30 min; read-out: CDK4/Cyclin D1 IC50
T1 construct: purchased ProQinase 0142-0143-1
In short: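 Recombinant CDK4/Cyclin D1 (20 nM final) preincubated 10 min at room temperature with compound in HEPES pH 7.5 buffer with MgCl2, DTT and Triton X-100. Reaction started with 3000 nM FAM-labelled peptide and 672 uM ATP, run 30 min at 28° C, stopped with EDTA. Mobility-shift % conversion gave % inhibition, and IC50 came from dose-response fits.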

CDK7/CyclinH/MAT1 = molecular target: T2, CDK7/CyclinH/MAT1 (Homo sapiens, UniProt P50613); test: CDK7/CyclinH/MAT1 kinase inhibitory activity (Caliper mobility shift); settings: enzyme 12.5 nM, ATP 70 μM, 28° C. 30 min; read-out: CDK7/Cyclin H/MAT1 IC50
T2 construct: purchased Millipore 14-476M
Procedure: CDK7/CyclinH/MAT1 kinase inhibitory activity (IC50): 5 μl of various dilutions of test compound in 1× kinase buffer (20 mM HEPES, pH 7.5, 10 mM MgCl2, 2 mM DTT and 0.01% Triton X-100) was mixed with 10 μL of CDK7/CyclinH/MAT1 (Millipore, 14-476M #, final concentration 12.5 nM in 1× Kinase buffer) in 384 plates and incubated at room temperature for 10 min. To initiate each reaction, 10 μL of peptide solution containing fluorescently-labeled-peptide CTD3 (5-FAM-[…], GL, SY346885 #, final concentration 3000 nM) and ATP (final concentration 70 μM) in 1× Kinase buffer was added to each of the wells containing test compound and CDK7/CyclinH/MAT1 mixture. The reaction is then allowed to proceed at 28° C. for 30 min and terminated by the addition of 25 μL stop buffer (100 mM HEPES pH 7.5, 50 mM EDTA, 0.2% Coating Reagent #3 (Perkin Elmer, 760050 #) and 0.015% Brij-35).
(§1) Following the kinase reaction, Caliper EZ reader II (Downstream voltages: −500V, Upstream voltages: −2250V, Base pressure −0.5 PSI, Screen pressure −1.2 PSI) was used to separate the phosphoiylated (product) and the unphosphorylated (substrate) fluorescently-labeled peptide CTD3 based on their different mobility. Both substrate and product were measured and the ratio of these values were used to generate % conversion by Caliper EZ reader II. These conversion values were then transformed into % inhibition of kinase activity using the formula: % Inhibition=[(MA−X)/(MA−MI)]×100% where MA=conversion value of DMSO only controls, MI=conversion value of no enzyme controls and X=conversion value at any given compound dose. IC50 values were then calculated by plotting dose-response curves and then using the XLfit application in Excel software.

CDK2/CyclinE1 = molecular target: T3, CDK2/CyclinE1 (Homo sapiens, UniProt P24941); test: CDK2/CyclinE1 kinase inhibitory activity (Caliper mobility shift); settings: enzyme 3 nM, ATP 77 μM, 28° C. 30 min; read-out: CDK2/Cyclin E1 IC50
T3 construct: purchased Carna 04-165
Procedure: CDK2/CyclinE1 kinase inhibitory activity (IC50): 5 μl of various dilutions of test compounds in 1×kinase buffer (50 mM HEPES pH 7.5, 10 mM MgCl2, 2 mM DTT and […] Brij-35) were mixed with 10 μL of CDK2/CyclinE1 (Carna, 04-165 #, final concentration 3 nM in 1×Kinase buffer) in 384 plates and incubated at room temperature for 10 min. To initiate each reaction, 10 μL of peptide solution containing fluorescently-labeled-peptide 18(5-FAM-QSPKKG-CONH2) (GL, 114202 #, final concentration 3000 nM) and ATP (final concentration 77 μM) in 1×Kinase buffer was added to each of the wells containing test compound and CDK2/CyclinE1 mixture. The reaction was then allowed to proceed at 28° C. for 30 min and terminated by the addition of 25 μL stop buffer (100 mM HEPES pH 7.5, 50 mM EDTA, 0.2% Coating Reagent #3 (Perkin Elmer, 760050 #) and 0.015% Brij-35).
as §1, with “phosphorylated” for “phosphoiylated”, “18” for “CTD3”

T1 sequence (P11802 whole entry): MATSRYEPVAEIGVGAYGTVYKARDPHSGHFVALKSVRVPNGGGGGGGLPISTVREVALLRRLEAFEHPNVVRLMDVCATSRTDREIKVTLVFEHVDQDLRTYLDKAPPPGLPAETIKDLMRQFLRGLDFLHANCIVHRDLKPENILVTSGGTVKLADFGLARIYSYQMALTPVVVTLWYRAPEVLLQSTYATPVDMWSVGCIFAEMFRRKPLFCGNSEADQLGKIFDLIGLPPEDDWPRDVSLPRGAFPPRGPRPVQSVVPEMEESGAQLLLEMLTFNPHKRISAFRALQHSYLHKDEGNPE
T1 sequence (P24385 whole entry partner): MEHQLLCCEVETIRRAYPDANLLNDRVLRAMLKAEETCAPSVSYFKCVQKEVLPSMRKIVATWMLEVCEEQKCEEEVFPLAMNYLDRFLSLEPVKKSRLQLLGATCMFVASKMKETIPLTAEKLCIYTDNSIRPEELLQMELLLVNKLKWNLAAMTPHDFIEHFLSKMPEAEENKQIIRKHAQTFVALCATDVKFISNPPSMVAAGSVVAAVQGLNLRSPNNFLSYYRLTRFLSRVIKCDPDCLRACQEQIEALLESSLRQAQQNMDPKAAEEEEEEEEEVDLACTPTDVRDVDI
T2 sequence (P50613 whole entry): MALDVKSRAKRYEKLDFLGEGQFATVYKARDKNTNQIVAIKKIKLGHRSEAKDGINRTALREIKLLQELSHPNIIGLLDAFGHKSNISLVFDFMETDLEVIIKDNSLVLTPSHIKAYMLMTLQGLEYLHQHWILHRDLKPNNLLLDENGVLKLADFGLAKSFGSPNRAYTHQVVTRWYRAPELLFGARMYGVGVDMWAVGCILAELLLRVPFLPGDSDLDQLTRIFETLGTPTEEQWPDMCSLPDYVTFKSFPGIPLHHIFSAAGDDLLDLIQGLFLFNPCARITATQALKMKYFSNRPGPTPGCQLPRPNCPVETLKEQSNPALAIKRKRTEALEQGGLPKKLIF
T2 sequence (P51946 whole entry partner): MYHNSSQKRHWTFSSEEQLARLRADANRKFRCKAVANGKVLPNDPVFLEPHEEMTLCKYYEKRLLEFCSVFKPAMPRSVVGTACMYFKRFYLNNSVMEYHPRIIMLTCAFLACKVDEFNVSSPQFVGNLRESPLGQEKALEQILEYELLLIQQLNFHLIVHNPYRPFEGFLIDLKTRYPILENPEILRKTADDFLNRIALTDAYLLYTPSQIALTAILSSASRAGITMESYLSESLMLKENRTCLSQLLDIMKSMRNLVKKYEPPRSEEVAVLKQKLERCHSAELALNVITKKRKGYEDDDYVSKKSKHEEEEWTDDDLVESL
T2 sequence (P51948 whole entry partner): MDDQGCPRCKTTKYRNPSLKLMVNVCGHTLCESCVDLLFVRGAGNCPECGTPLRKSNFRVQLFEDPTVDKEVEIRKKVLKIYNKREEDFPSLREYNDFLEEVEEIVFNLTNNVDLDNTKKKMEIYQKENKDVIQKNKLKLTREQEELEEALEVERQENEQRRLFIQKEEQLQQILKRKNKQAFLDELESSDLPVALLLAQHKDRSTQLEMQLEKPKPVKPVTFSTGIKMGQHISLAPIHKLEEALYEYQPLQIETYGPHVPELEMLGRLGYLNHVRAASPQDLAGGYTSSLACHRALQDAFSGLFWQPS

IC50 (CDK4/CyclinD1) [nM]	IC50 (CDK7/CyclinH/MAT1) [nM]	IC50 (CDK2/CyclinE1) [nM]	SMILES
< 10	≥ 1000	100 to 1000	CC(C)(O)c1cnc2c(F)cc(-c3nc(N[C@@H]4CCOC[C@H]4O)ncc3Cl)cc2c1Cl [Example 17, (3S,4R)-4-((5-chloro-4-(4-chloro-8-fluoro-3-(2-hydroxypropan-2-yl)quinolin-6-yl)pyrimidin-2-yl)amino)tetrahydro-2H-pyran-3-ol]
< 10	≥ 1000	100 to 1000	Cc1[nH]cnc1-c1cnc2c(F)cc(-c3nc(N[C@@H]4CCOC[C@H]4O)ncc3Cl)cc2c1 [Example 18, (3S,4R)-4-((5-chloro-4-(8-fluoro-3-(5-methyl-1H-imidazol-4-yl)quinolin-6-yl)pyrimidin-2-yl)amino)tetrahydro-2H-pyran-3-ol]
< 10	10 to 100	10 to 100	O[C@@H]1COCC[C@H]1Nc1ncc(Cl)c(-c2cc(F)c3c(c2)N2CCNC[C@@H]2CO3)n1 [Example 19, (3S,4R)-4-((5-chloro-4-((R)-7-fluoro-1,2,3,4,4a,5-hexahydrobenzo[b]pyrazino[1,2-d][1,4]oxazin-9-yl)pyrimidin-2-yl)amino)tetrahydro-2H-pyran-3-ol]
< 10	≥ 1000	100 to 1000	O[C@@H]1COCC[C@H]1Nc1ncc(Cl)c(-c2cc(F)c3ncc4c(c3c2)CNC2(CC2)C4)n1 [Example 21, (3S,4R)-4-((5-chloro-4-(7-fluoro-1,4-dihydro-2H-spiro[benzo[c][2,6]naphthyridine-3,1′-cyclopropan]-9-yl)pyrimidin-2-yl)amino)tetrahydro-2H-pyran-3-ol]
< 10	100 to 1000	100 to 1000	CC(C)(O)c1cnc2c(F)cc(-c3nc(N[C@@H]4CCOC[C@H]4O)ncc3F)cc2c1Cl [Example 22, (3S,4R)-4-((4-(4-chloro-8-fluoro-3-(2-hydroxypropan-2-yl)quinolin-6-yl)-5-fluoropyrimidin-2-yl)amino)tetrahydro-2H-pyran-3-ol]
< 10	10 to 100	10 to 100	Cc1c(C(C)(C)O)cnc2c(F)cc(-c3nc(N[C@@H]4CCOC[C@H]4O)ncc3F)cc12 [Example 23, (3S,4R)-4-((5-fluoro-4-(8-fluoro-3-(2-hydroxypropan-2-yl)-4-methylquinolin-6-yl)pyrimidin-2-yl)amino)tetrahydro-2H-pyran-3-ol]
< 10	100 to 1000	10 to 100	CC1(C)Cc2cnc3c(F)cc(-c4nc(N[C@@H]5CCOC[C@H]5O)ncc4F)cc3c2CN1 [Example 24, (3S,4R)-4-((5-fluoro-4-(7-fluoro-3,3-dimethyl-1,2,3,4-tetrahydrobenzo[c][2,6]naphthyridin-9-yl)pyrimidin-2-yl)amino)tetrahydro-2H-pyran-3-ol]
< 10	10 to 100	10 to 100	O[C@@H]1COCC[C@H]1Nc1cc(-c2cc(F)c3ncc4c(c3c2)CNCC4)c(Cl)cn1 [Example 25]
10 to 100	≥ 1000	100 to 1000	CC(C)(N)c1cnc2ccc(-c3nc(N[C@@H]4CCOC[C@H]4O)ncc3Cl)cc2c1 [Example 26]
10 to 100	≥ 1000	100 to 1000	O[C@@H]1COCC[C@H]1Nc1ncc(Cl)c(-c2cc(F)c3ncc(C4(O)CC4)cc3c2)n1 [Example 29]
< 10	≥ 1000	100 to 1000	CC1(C)Cc2cnc3c(F)cc(-c4nc(N[C@@H]5CCOC[C@H]5O)ncc4Cl)cc3c2CN1 [Example 30]
10 to 100	≥ 1000	100 to 1000	CNC(C)(C)c1cnc2c(F)cc(-c3nc(N[C@@H]4CCOC[C@H]4O)ncc3Cl)cc2c1 [Example 36]
< 10	≥ 1000	≥ 1000	Cc1nc2c(F)cc(-c3nc(N[C@@H]4CCOC[C@H]4O)ncc3Cl)cc2c2c1CCN(C)C2 [Example 37]
< 10	≥ 1000	100 to 1000	CC(C)(O)c1cnc2c(F)cc(-c3nc(N[C@@H]4CCOC[C@H]4O)ncc3C#N)cc2c1Cl [Example 41]
< 10	≥ 1000	100 to 1000	CC1(C)Cc2cnc3c(F)cc(-c4nc(N[C@@H]5CCOC[C@H]5O)ncc4C#N)cc3c2CN1 [Example 49]
< 10	≥ 1000	≥ 1000	CC(C)(O)c1cnc2c(F)cc(-c3nc(Nc4ccc(-c5c[nH]cn5)cn4)ncc3F)cc2c1Cl [Example 52]
< 10	10 to 100	10 to 100	O[C@@H]1COCC[C@H]1Nc1ncc(F)c(-c2cc(F)c3ncc4c(c3c2)CNC2(CC2)C4)n1 [Example 56]
< 10	≥ 1000	≥ 1000	Cc1c(C(C)(C)O)cnc2c(C)cc(-c3nc(N[C@@H]4CCOC[C@H]4O)ncc3Cl)cc12 [Example 58]
< 10	≥ 1000	≥ 1000	[2H]C([2H])([2H])C(O)(c1cc2cc(-c3nc(N[C@@H]4CCOC[C@H]4O)ncc3Cl)cc(F)c2nc1C)C([2H])([2H])[2H] [Example 60, (3S,4R)-4-((5-chloro-4-(8-fluoro-3-(2-hydroxypropan-2-yl-1,1,1,3,3,3-d6)-2-methylquinolin-6-yl)pyrimidin-2-yl)amino)tetrahydro-2H-pyran-3-ol]
< 10	100 to 1000	100 to 1000	Cc1nc2c(F)cc(-c3nc(N[C@@H]4CCOC[C@H]4O)ncc3F)cc2c2c1CC1(CC1)NC2 [Example 65]
10 to 100	≥ 1000	≥ 1000	[2H]c1nc2c(F)cc(-c3nc(N[C@@H]4CCOC[C@H]4O)ncc3C)cc2c2c1CC1(CC1)NC2 [Example 67]
< 10	100 to 1000	100 to 1000	[2H]c1nc(N[C@@H]2CCOC[C@H]2O)nc(-c2cc(F)c3nc([2H])c4c(c3c2)CNC2(CC2)C4)c1Cl [Example 68]
< 10	100 to 1000	100 to 1000	[2H]c1nc(N[C@@H]2CCOC[C@H]2O)nc(-c2cc(F)c3nc(C)c(C(C)(C)O)cc3c2)c1F [Example 83]
< 10	10 to 100	100 to 1000	[2H]c1nc2c(F)cc(-c3nc(N[C@@H]4CCOC[C@H]4O)ncc3F)cc2c(C)c1C(C)(C)O [Example 94]
< 10	≥ 1000	100 to 1000	Cc1nc2c(F)cc(-c3nc(N[C@@H]4CCOC[C@H]4O)ncc3Cl)cc2c2c1CC(C)(C)NC2 [Example 98]
< 10	100 to 1000	100 to 1000	[2H]c1nc2c(F)cc(-c3nc(N[C@@H]4CCOC[C@H]4O)ncc3Cl)cc2c2c1CC(C)(C)NC2 [Example 100]
< 10	≥ 1000	≥ 1000	[2H]c1nc2c(F)cc(-c3nc(N[C@@H]4CCOC[C@H]4O)ncc3C)cc2c2c1CC(C)(C)NC2 [Example 102]
< 10	100 to 1000	100 to 1000	CC1(C)Cc2cnc3c(F)cc(-c4ccnc(N[C@@H]5CCOC[C@H]5O)n4)cc3c2CN1 [Example 107]
